Results on 23 compounds are retold here after PubChem BioAssay AID330 (DTP/NCI, 2004).

The test system of this assay is P388 leukemia ip, CD2F1 mice, survival T/C. The assay is described as follows: NCI In Vivo Anticancer Drug Screen. Data for tumor model P388 Leukemia (intraperitoneal) in CD2F1 (CDF1) mice. The following applies: endpoint: median survival time, higher = longer survival. Summed up:
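Mice carrying the transplanted tumor received test compound or vehicle. Survival was recorded in each group, and the value is the treated-group measurement divided by that of the vehicle-treated control group.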

[1] abbreviates: dose: 60.0 mg/kg/injection, schedule: Q01DX005 (ip), vehicle: Klucel (hydroxypropylcellulose) (HPC).
Where [2] appears, read: dose: 120.0 mg/kg/injection, schedule: Q01DX005 (ip), vehicle: Klucel (hydroxypropylcellulose) (HPC).
The mark [3] stands for this setting: dose: 50.0 mg/kg/injection, schedule: Q01DX005 (ip), vehicle: saline with Tween-80.
Setting [4] is: dose: 100.0 mg/kg/injection, schedule: Q01DX005 (ip), vehicle: saline with Tween-80.
The mark [5] stands for this setting: dose: 200.0 mg/kg/injection, schedule: Q01DX005 (ip), vehicle: saline with Tween-80.
Setting [6] is: dose: 12.5 mg/kg/injection, schedule: Q01DX009 (ip), vehicle: saline with Tween-80.
The mark [7] stands for this setting: dose: 25.0 mg/kg/injection, schedule: Q01DX009 (ip), vehicle: saline with Tween-80.
Setting [8] is: dose: 60.0 mg/kg/injection, schedule: Q01DX005 (ip), vehicle: saline with Tween-80.
The mark [9] stands for this setting: dose: 120.0 mg/kg/injection, schedule: Q01DX005 (ip), vehicle: saline with Tween-80.
Setting [10] is: dose: 240.0 mg/kg/injection, schedule: Q01DX005 (ip), vehicle: saline with Tween-80.
Setting [11] is: dose: 50.0 mg/kg/injection, schedule: Q01DX005 (ip), vehicle: Klucel (hydroxypropylcellulose) (HPC).
[12] abbreviates: dose: 100.0 mg/kg/injection, schedule: Q01DX005 (ip), vehicle: Klucel (hydroxypropylcellulose) (HPC).
The mark [13] stands for this setting: dose: 200.0 mg/kg/injection, schedule: Q01DX005 (ip), vehicle: Klucel (hydroxypropylcellulose) (HPC).

Several values for one entry are separate records, joined by “and”; a condition that tells them apart may be missing. Equal values may be shown once. Toxic doses and inconclusive results are not listed.

`CN1/C(=C/C2=C([O-])C(=C/C3=[N+](C)c4ccccc4C3(C)C)/C2=O)C(C)(C)c2ccccc21`: the T/C is 91 % of control under setting [1] and 87 % of control under setting [2].

As for `CCCCCCCCCCCC[N+]1(CC)CCCC1`, the T/C is, setting by setting: (dose: 1.56 mg/kg/injection, schedule: Q01DX009 (ip), vehicle: saline) 100 % of control; (dose: 3.12 mg/kg/injection, schedule: Q01DX009 (ip), vehicle: saline) 98 % of control and 92 % of control; (dose: 6.25 mg/kg/injection, schedule: Q01DX009 (ip), vehicle: saline) 86 % of control.

In the case of `CC(CCC(=O)O)(c1ccc(OC(=O)Nc2ccc([N+](=O)[O-])cc2)cc1)c1ccc(OC(=O)Nc2ccc([N+](=O)[O-])cc2)cc1`, the T/C is 111 % of control under setting [3], 96 % of control under setting [4] and 93 % of control under setting [5].

As to `CSc1ccccc1C(=S)N1CCOCC1`, the T/C reads like this: (dose: 100.0 mg/kg/injection, schedule: Q01DX001 (ip), vehicle: saline with Tween-80) 100 % of control; (dose: 200.0 mg/kg/injection, schedule: Q01DX001 (ip), vehicle: saline with Tween-80) 90 % of control; (dose: 400.0 mg/kg/injection, schedule: Q01DX001 (ip), vehicle: saline with Tween-80) 109 % of control.

On to `Cc1ccc(C[n+]2ccc3c([N+](=O)[O-])cccc3c2)cc1`, for which the T/C is 112 % of control (dose: 6.25 mg/kg/injection, schedule: Q01DX009 (ip), vehicle: saline with Tween-80); 113 % of control under setting [6]; 114 % of control under setting [7].

For `CC(Cl)CN=NNc1ccc(C#N)cc1` (stereo not drawn), the T/C was 99 % of control (dose: 12.5 mg/kg/injection, schedule: Q01DX009 (ip), vehicle: distilled water + Tween-80); 100 % of control (dose: 25.0 mg/kg/injection, schedule: Q01DX009 (ip), vehicle: distilled water + Tween-80); 100 % of control (dose: 50.0 mg/kg/injection, schedule: Q01DX009 (ip), vehicle: distilled water + Tween-80); 104 % of control (dose: 100.0 mg/kg/injection, schedule: Q01DX009 (ip), vehicle: distilled water + Tween-80); 119 % of control (dose: 200.0 mg/kg/injection, schedule: Q01DX009 (ip), vehicle: distilled water + Tween-80).

As to `CS1(C)=NC(=O)C2=C(N=1)c1ccccc1S2(=O)=O`, the T/C is, setting by setting: under setting [8], 97 % of control; under setting [9], 94 % of control; under setting [10], 89 % of control.

Consider `CC(C)CC(N)CO` (stereo not drawn), for which the T/C was 105 % of control (dose: 50.0 mg/kg/injection, schedule: Q01DX005 (ip), vehicle: suspension in saline); 106 % of control (dose: 100.0 mg/kg/injection, schedule: Q01DX005 (ip), vehicle: suspension in saline); 106 % of control (dose: 200.0 mg/kg/injection, schedule: Q01DX005 (ip), vehicle: suspension in saline).

In the case of `Cc1cccc(Nc2c(C(=O)O)cnc3cc4c(cc23)OCO4)c1`, the T/C was 94 % of control under setting [1] and 94 % of control under setting [2].

For `O.O.O=S(=O)(O)C(F)(F)F.[NH2-].[NH2-].[NH2-].[NH2-].[Ru+3]`, the T/C by setting is: (dose: 12.5 mg/kg/injection, schedule: Q04DX003 (ip), vehicle: saline) 115 % of control; (dose: 25.0 mg/kg/injection, schedule: Q04DX003 (ip), vehicle: saline) 124 % of control; (dose: 100.0 mg/kg/injection, schedule: Q04DX003 (ip), vehicle: saline) 157 % of control.

For `O=C(O)COC1CC(=O)N2c3ccccc3C34CCN5C(=O)C(=O)C(CC53)C1C24` (stereo not drawn), the T/C under setting [8] is 96 % of control, the T/C under setting [9] is 95 % of control and the T/C under setting [10] is 88 % of control.

On to `COc1ccc(C(=O)/C=C/c2cc3c(cc2OCc2ccccc2)OCO3)c(OCc2ccccc2)c1`, for which the T/C was 99 % of control (dose: 75.0 mg/kg/injection, schedule: Q04DX003 (ip), vehicle: Klucel (hydroxypropylcellulose) (HPC)); 94 % of control (dose: 150.0 mg/kg/injection, schedule: Q04DX003 (ip), vehicle: Klucel (hydroxypropylcellulose) (HPC)); 90 % of control (dose: 300.0 mg/kg/injection, schedule: Q04DX003 (ip), vehicle: Klucel (hydroxypropylcellulose) (HPC)).

Turning to `CCCCNC(=O)c1ccccc1C(=O)NC1(C(=O)NCCCC)CCCC1`, the T/C under setting [3] was 101 % of control, the T/C under setting [4] is 97 % of control and the T/C under setting [5] is 93 % of control.

As to `CC(SCCCCCCCCCCSC(C)C(=O)O)C(=O)O` (stereo not drawn), the T/C under setting [11] is 93 % of control, the T/C under setting [12] is 98 % of control and the T/C under setting [13] was 95 % of control.

`C=CCOc1cc2c(cc1C(C)(C)c1ccc(OC)cc1)OCO2`: the T/C reads like this: under setting [8], 118 % of control; under setting [9], 117 % of control.

`COc1ccc2c(c1OC(C)=O)C1=CC(OC(C)=O)=CCC13CCN(C)C3C2` (stereo not drawn): the T/C runs as follows: (dose: 50.0 mg/kg/injection, schedule: Q01DX005 (ip), vehicle: saline) 102 % of control; (dose: 100.0 mg/kg/injection, schedule: Q01DX005 (ip), vehicle: saline) 111 % of control; (dose: 200.0 mg/kg/injection, schedule: Q01DX005 (ip), vehicle: saline) 99 % of control.

In the case of `CCN1C(=O)NS(=O)(=O)c2ccccc21`, the T/C is 94 % of control under setting [3], 107 % of control under setting [4] and 97 % of control under setting [5].

For the compound `COc1ccc(-c2nnc3cc(C)n4nnnc4n23)cc1OC`, the T/C was 100 % of control under setting [11], 96 % of control under setting [12] and 94 % of control under setting [13].

Regarding `CN(C)c1c2c(oc(=O)c1Cl)-c1ccccc1SCC2`, the T/C was 101 % of control under setting [8], 100 % of control under setting [9] and 91 % of control under setting [10].

`N=c1c(C(N)=O)nc(/C=C/c2ccccc2)cn1O`: the T/C runs as follows: under setting [6], 90 % of control; under setting [7], 90 % of control; (dose: 50.0 mg/kg/injection, schedule: Q01DX009 (ip), vehicle: saline with Tween-80) 96 % of control.

Regarding `NC(Cc1cccc2ccccc12)C(=O)O` (stereo not drawn), the T/C runs as follows: (dose: 12.5 mg/kg/injection, schedule: Q01DX005 (ip), vehicle: Klucel (hydroxypropylcellulose) (HPC)) 93 % of control; (dose: 25.0 mg/kg/injection, schedule: Q01DX005 (ip), vehicle: Klucel (hydroxypropylcellulose) (HPC)) 100 % of control; under setting [11], 102 % of control and 110 % of control.

For the compound `O=[N+]([O-])C(Cc1ccccc1)Cc1ccccc1`, the T/C is, setting by setting: under setting [3], 98 % of control; under setting [4], 103 % of control; under setting [5], 97 % of control.

As to `NC(=O)N/N=C1/CCCCCC1(c1ccccc1)c1ccccc1`, the T/C is 95 % of control (dose: 30.0 mg/kg/injection, schedule: Q01DX005 (ip), vehicle: Klucel (hydroxypropylcellulose) (HPC)); 89 % of control under setting [1]; 91 % of control under setting [2].
